Results as given in US12643867B2, “Compositions and uses thereof” (University of Virginia Patent Foundation, priority 2017, dated 2026).

Key:
[1] = molecular target: T1, DGKA (Diacylglycerol kinase alpha) (Rattus norvegicus, UniProt P51556); experiment: SILAC LC-MS ATP acyl phosphate probe competition, recombinant DGK-HEK293T lysates; format: binding; conditions: ATP 1 mM, Ketanserin, Ritanserin 100 μM, RF001 1 mM; for SILAC ratio, DGKA C1 probe-modified peptide: site C1 (K237); for SILAC ratio, DGKA DAGKa probe-modified peptide: site DAGKa (K539); for SILAC ratio, DGKA DAGKc probe-modified peptide: site DAGKc (K377)
T1 construct: expressed in transfected cells; host or cells: HEK293T (SILAC HEK293T for LC-MS)
Experimental: All other vectors were gifted to Dr. Kevin Lynch (University of Virginia, School of Medicine) by Dr. Kaoru Goto (Yamagata University, School of Medicine) and Dr. Fumio Sakane (Chiba University) and were kindly shared with us: pcDNA3-FLAG-DGKA (rat), pCMV-Tag2B-FLAG-DGKQ (human), pcDNA3-DGKE-3×Flag (human), and pCMV-SPORT6-HA-DGKZ (human). HEK293T cells were plated at a concentration of 400,000 cells in complete DMEM and grown to 50-60% confluency. A polyethyleneimine (PEI) stock solution was prepared (1 mg/mL, pH 7.4) and filter sterilized. Serum-free DMEM (600 μL) was mixed gently with 2.6 μg DNA and 20 μL of sterile PEI (1 mg/mL, pH 7.4) in a sterile microfuge tube. Mixtures were incubated for 30 min at 25° C. The mixture was then added drop-wise to each 10 cm^2 plate, rocked back and forth to mix, and placed back in the incubator. Cell pellets were harvested after two full days of growth, snap-frozen in liquid N2, and stored at −80° C. until use. Recombinant proteins were produced by transient transfection in SILAC HEK293T cells using the procedure described above, except that cells were plated at a concentration of 1×10^6 cells per 10 cm^2 plate and grown to ˜70% confluency prior to introducing transfection mixture.
(§1) Proteomes were diluted to 2 mg/ml in kinase buffer. The light and heavy proteomes (0.5 mg, 250 μL total reaction volume) were pre-treated with vehicle or compound, respectively (5 μL, DMSO (light) or 50× stock in DMSO (heavy)), mixed gently, and incubated at 25° C. for 30 min. […] After incubation, matched light and heavy proteomes were transferred and mixed in a 1:1 ratio in a two-dram vial containing 4:1:3 MeOH/CHCl3/H2O (2 mL MeOH, 500 AL CHCl3, 1.5 mL H2O) for extraction of proteins to remove excess probe, quickly vortexed, and centrifuged at 1,400×g for 3 min to pellet protein. Organic and aqueous layers were removed using a Pasteur pipette, and the protein pellet was transferred to a screw-top tube in 600 μL MeOH. A second extraction was performed by adding CHCl3 (150 μL) and H2O (600 μL) to each sample, vortexed, and centrifuged at 1,400×g for 3 min to pellet protein. Organic and aqueous layers were removed by pipetting. MeOH added to pellet (600 μL) and pellets were re-suspended by sonication (3×1 sec pulse, 20% amplitude) for a final extraction. Samples were then centrifuged at 17,000×g for 5 min to pellet protein and MeOH was removed by pipetting. […] To desalt the samples, each was transferred to a two-dram glass vial, and to the vial 4:1:2 MeOH/CHCl3/H2O (2 mL MeOH, 500 AL CHCl3, 1 mL H2O) was added. The vials were vortexed quickly, spun at 1.400×g for 3 min to pellet protein, and aqueous and organic layers were removed using a Pasteur pipette. The resulting protein pellet was transferred to a screw-top tube in 600 μL MeOH, and then CHCl3 (150 μL) and HO (600 μL) were added to extract protein a second time. The samples were vortexed quickly, centrifuged at 1,400×g to pellet protein, and the aqueous and organic layers were removed by pipetting. Resulting protein pellet was suspended in MeOH (600 μL) via sonication (3×1 sec pulse, 20% amplitude), centrifuged at 17,000×g for 5 min to pellet protein, and MeOH removed by pipetting. Protein pellets were then re-suspended in 25 mM ammonium bicarbonate (500 μL) and digested with 7.5 μg Trypsin/Lys-C(Promega, 15 μL, 0.5 μg/μL) for 3 h at 37° C. Avidin-agarose beads (Thermo Scientific Pierce, 100 AL aliquot per sample) were washed three times by adding 10 mL DPBS, centrifuged at 1,400×g for 1 min, and decanting. This wash step was repeated for a total of 3 times. Digested protein samples were mixed with washed avidin beads (100 μL) and brought to a volume of 5.5 mL with DPBS in a 15 mL conical and rotated for 1 h to enrich samples for the covalent desthiobiotin modification. The beads were washed with 25 mM ammonium bicarbonate (3× with 10 mL, centrifuge at 1,400×g for 3 min, decant) and then H2O (3× with 10 mL, centrifuge at 1,400×g for 3 min, decant).

[2] = molecular target: T2, PLK1 (Serine/threonine-protein kinase PLK1) (Homo sapiens, UniProt P53350); experiment: SILAC LC-MS ATP acyl phosphate probe competition, native kinases in HEK293T; format: binding; conditions: site Lys1; ATP 1 mM; Ketanserin, Ritanserin 100 μM; RF001 1 mM
T2 construct: Native kinases; endogenous in cells; host or cells: HEK293T soluble proteome
Experimental: as §1, with “Protein pellets were then re-suspended in 25 mM ammonium bicarbonate (500 μL) and digested with 7.5 μg Trypsin/Lys-C(Promega, 15 μL, 0.5 μg/μL) for 3 h at 37° C. Avidin-agarose beads (Thermo Scientific Pierce, 100 AL aliquot per sample) were washed three times by adding 10 mL DPBS, centrifuged at 1,400×g for 1 min, and decanting. This wash step was repeated for a total of 3 times. Digested protein samples were mixed with washed avidin beads (100 μL) and brought to a volume of 5.5 mL with DPBS in a 15 mL conical and rotated for 1 h to enrich samples for the covalent desthiobiotin modification. The beads were washed with 25 mM ammonium bicarbonate (3× with 10 mL, centrifuge at 1,400×g for 3 min, decant) and then H2O (3× with 10 mL, centrifuge at 1,400×g for 3 min, decant).” left out

[3] = molecular target: Gamma (DGK gamma) (Homo sapiens, UniProt P49619); experiment: DGK isoform % Activity screen; format: biochemical
Chain of Gamma (DGK gamma) (P49619 whole entry, canonical isoform): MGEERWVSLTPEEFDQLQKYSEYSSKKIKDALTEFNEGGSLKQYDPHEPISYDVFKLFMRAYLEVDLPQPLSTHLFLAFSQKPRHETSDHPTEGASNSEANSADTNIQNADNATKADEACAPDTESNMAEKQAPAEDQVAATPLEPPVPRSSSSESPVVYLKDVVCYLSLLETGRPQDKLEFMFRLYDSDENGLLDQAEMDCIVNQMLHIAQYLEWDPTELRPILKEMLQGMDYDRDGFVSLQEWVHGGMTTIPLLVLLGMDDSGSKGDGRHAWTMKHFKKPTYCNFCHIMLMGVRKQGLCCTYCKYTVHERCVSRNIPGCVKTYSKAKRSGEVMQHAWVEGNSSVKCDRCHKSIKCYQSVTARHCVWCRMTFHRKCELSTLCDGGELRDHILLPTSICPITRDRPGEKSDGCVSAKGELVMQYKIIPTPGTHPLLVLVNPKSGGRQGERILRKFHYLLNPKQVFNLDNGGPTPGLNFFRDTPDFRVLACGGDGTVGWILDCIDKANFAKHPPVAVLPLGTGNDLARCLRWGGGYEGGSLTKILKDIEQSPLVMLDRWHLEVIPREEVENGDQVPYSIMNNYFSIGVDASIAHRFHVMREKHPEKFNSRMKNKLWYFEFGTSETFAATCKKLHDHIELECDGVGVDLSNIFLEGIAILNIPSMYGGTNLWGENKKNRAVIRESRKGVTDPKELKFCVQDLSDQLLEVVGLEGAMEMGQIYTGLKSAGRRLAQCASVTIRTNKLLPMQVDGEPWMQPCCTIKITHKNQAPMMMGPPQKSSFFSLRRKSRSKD

T2 sequence (P53350 whole entry): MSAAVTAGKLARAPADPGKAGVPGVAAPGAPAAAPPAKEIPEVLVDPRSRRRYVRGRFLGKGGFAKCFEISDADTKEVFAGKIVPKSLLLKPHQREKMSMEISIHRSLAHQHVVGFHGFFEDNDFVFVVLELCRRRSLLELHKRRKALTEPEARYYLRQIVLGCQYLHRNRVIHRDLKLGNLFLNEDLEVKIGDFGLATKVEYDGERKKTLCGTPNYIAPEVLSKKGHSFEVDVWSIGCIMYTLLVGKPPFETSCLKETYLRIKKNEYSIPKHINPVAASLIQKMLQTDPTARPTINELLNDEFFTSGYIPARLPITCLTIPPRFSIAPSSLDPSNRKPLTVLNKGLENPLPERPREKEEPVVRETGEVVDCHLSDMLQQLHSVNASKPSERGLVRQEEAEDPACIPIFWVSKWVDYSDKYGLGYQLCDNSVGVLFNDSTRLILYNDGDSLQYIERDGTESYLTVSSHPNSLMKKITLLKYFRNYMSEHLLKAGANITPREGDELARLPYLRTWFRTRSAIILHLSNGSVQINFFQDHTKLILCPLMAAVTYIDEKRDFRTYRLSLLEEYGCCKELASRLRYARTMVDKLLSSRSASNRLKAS
T1 sequence (P51556 whole entry): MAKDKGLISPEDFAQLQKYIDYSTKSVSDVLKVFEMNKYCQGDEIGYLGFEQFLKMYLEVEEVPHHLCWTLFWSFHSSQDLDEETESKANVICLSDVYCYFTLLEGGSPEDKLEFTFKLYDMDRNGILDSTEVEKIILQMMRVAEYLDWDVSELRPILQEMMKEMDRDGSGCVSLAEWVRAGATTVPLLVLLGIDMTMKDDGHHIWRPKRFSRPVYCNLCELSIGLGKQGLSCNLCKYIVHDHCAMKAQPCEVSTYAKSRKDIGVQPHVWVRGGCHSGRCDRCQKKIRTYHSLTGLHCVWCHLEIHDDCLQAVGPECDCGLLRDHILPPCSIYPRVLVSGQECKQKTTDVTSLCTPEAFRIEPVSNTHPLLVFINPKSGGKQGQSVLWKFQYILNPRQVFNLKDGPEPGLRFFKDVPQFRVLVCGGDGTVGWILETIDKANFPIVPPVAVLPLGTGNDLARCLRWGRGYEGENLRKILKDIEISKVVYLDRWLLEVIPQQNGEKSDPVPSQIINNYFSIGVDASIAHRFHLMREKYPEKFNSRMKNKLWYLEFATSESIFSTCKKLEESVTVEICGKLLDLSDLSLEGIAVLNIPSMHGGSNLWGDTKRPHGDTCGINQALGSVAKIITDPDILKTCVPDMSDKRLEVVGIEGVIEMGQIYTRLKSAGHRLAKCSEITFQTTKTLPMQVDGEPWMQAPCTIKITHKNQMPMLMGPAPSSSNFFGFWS

SILAC ratio, DGKA C1 probe-modified peptide [1]	SILAC ratio, DGKA DAGKa probe-modified peptide [1]	SILAC ratio, DGKA DAGKc probe-modified peptide [1]	SILAC ratio, PLK1 probe-modified peptide [2]	activity at 100 µM [3]	activity at 1000 µM ([3]; read-out: 1 mM % Activity, Gamma)	Structure (SMILES)
1.4	1.3	1.2	1.0	24%		O=C(c1ccc(F)cc1)C1CCN(CCn2c(=O)[nH]c3ccccc3c2=O)CC1 [Ketanserin]
12.6	9.1	1.7	0.9	82%	5%	Fc1ccc(C(=C2CCNCC2)c2ccc(F)cc2)cc1 [RF001, 4-(Bis(4-fluorophenyl)methylene) piperidine]

Structure (SMILES)	SILAC ratio, DGKA C1 probe-modified peptide [1]	SILAC ratio, DGKA DAGKa probe-modified peptide [1]	SILAC ratio, DGKA DAGKc probe-modified peptide [1]	SILAC ratio, PLK1 probe-modified peptide [2]	activity at 100 µM [3]	activity at 1000 µM ([3]; read-out: 1 mM % Activity, Gamma)
Cc1nc2sccn2c(=O)c1CCN1CCC(=C(c2ccc(F)cc2)c2ccc(F)cc2)CC1 [Ritanserin]	7.0	7.0	2.0	1.5	55%	
